{
  "source": "patent US20040219189A1",
  "about": "(priority 2001, published 2004)",
  "key": {"[1]": {"system": "Arbor Acres broilers", "assay": "Fattening of broilers with feed containing GABA (day 21 to day 41 after birth)", "assay_type": "in vivo", "conditions": "for increase in the body weight per 1 kg of feed during day 21 to day 41 after birth: compared to 0% group (p<0.05), FIG. 2; for increase in the body weight from day 21 to day 41 after birth: FIG. 1"}, "[2]": {"system": "ventromedial nucleus of hypothalamus (VMH) of rat", "conditions": "VMH stimulated by water absorbent polymers, Yokawa et al. 1990; cited from earlier work"}, "[3]": {"system": "kainate receptors", "conditions": "Narita et al. 1993; cited from earlier work"}},
  "data": [
    {"smiles": "NCCCC(=O)O", "note": "[GABA, γ-aminobutyric acid]", "values": [
      {"measurement": "increase in the body weight per 1 kg of feed during day 21 to day 41 after birth", "setting": "[1]; 0.5% GABA additive rate", "result": "significant increase"},
      {"measurement": "increase in the body weight from day 21 to day 41 after birth", "setting": "[1]; 0.5% additive rate of GABA in feed", "result": "tendency of increase was also observed at 0.5% but the significant difference was not clearly observed"},
      {"measurement": "increase in the body weight per 1 kg of feed during day 21 to day 41 after birth", "setting": "[1]; 1% GABA additive rate", "result": "significant increase"},
      {"measurement": "increase in the body weight from day 21 to day 41 after birth", "setting": "[1]; 1% additive rate of GABA in feed", "result": "maximum increase"},
      {"measurement": "increase in the body weight per 1 kg of feed during day 21 to day 41 after birth", "setting": "[1]; 3% GABA additive rate", "result": "significant increase"},
      {"measurement": "induction of rat running activity caused by polymers", "setting": "[2]", "result": "inhibited"}
    ]},
    {"smiles": "O=C1N=c2cc([N+](=O)[O-])c([N+](=O)[O-])cc2=NC1=O", "note": "[DNQX, 6,7-dinitroquinoxaline-2,3-dione]", "values": [
      {"measurement": "inhibition of kainate-induced running activity in rat", "setting": "[3]", "result": "inhibited"}
    ]},
    {"smiles": "C=C(C)[C@H]1CN[C@H](C(=O)O)[C@H]1CC(=O)O", "note": "[kainate]", "values": [
      {"measurement": "running activity in rat", "setting": "[3]", "result": "induced"}
    ]}
  ]
}
